Reference: patent publication US12202818B2, “Compounds and methods for CD73 modulation and indications therefor” (Opna Bio SA, priority 2020, dated 2025)

Assays:
[1] = molecular target: T1, human CD73 (Homo sapiens, UniProt P21589); assay: Inhibitor activity against CD73 in cell based assay (CD73 expressing CHO-K1 cells); conditions: CHO-K1 cells expressing human CD73, 150 μM AMP, 4 hours of incubation; read-out: CHO-K1 CELL_VARIANT: CD73 IC50
T1 construct: expressed in transfected cells
T1 sequence (P21589 27-549): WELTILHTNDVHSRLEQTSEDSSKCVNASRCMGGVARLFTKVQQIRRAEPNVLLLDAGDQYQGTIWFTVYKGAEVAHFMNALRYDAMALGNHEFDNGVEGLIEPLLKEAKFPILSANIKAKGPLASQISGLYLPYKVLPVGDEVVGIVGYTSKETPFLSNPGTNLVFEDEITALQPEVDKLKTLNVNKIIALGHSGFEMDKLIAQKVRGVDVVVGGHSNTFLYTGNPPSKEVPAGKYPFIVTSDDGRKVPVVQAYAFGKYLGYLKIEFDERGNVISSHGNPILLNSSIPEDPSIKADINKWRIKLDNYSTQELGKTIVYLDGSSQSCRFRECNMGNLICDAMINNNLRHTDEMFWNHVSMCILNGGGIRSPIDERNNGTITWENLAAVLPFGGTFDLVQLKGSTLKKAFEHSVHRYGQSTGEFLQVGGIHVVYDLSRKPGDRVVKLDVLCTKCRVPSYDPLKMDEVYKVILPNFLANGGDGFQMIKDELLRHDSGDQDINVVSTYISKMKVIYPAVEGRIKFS
How it was run: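 AMP (150 μM) was added alongside 8 titrated compound doses (maximum 10 μM, 1:3 steps) to CHO-K1 cells stably expressing human CD73. After 4 h, supernatant AMP was measured indirectly with CellTiter-Glo 2.0 plus 1 μM ATP (30 min, RT). % inhibition versus high and low controls was fitted nonlinearly for IC50.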

[2] = molecular target: T2, Human CD73 (amino acid residues 27-549) (Homo sapiens, UniProt P21589); assay: CD73 enzymatic assay (luciferase-based indirect assay, CellTiter-Glo); format: biochemical; conditions: 0.4 nM CD73, 150 μM AMP, 1 hour at room temperature
T2 construct: Human CD73 (amino acid residues 27-549); His tag (N); made in house; host or cells: E. coli
T2 sequence (P21589 27-549): T1 sequence (P21589 27-549)
How it was run: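 Luciferase-coupled readout: AMP left after CD73 turnover suppresses CellTiter-Glo signal (1 μM ATP final, 30 min RT). Reaction beforehand: 150 μM AMP, 0.4 nM E. coli-made His-tagged CD73 residues 27-549, test compound, HEPES pH 7.4 with Tween-20, 1 h RT. % inhibition fitted nonlinearly for IC50.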

SMILES	IC50 [1] [µM]	IC50 [2] [µM]
COC(=O)C1CC(Cn2nc(C)c(-c3ccnc(O[C@@H]4CCN(c5cn[nH]c(=O)c5Cl)C4)c3)c2C)C1 (stereo partly drawn) [P-0055, methyl (R)-3-((4-(2-((1-(5-chloro-6-oxo-1,6-dihydropyridazin-4-yl)pyrrolidin-3-yl)oxy)pyridin-4-yl)-3,5-dimethyl-1H-pyrazol-1-yl)methyl)cyclobutane-1-carboxylate]	0.001 to 10	0.001 to 10
Cc1nn(CC2CC(C(N)=O)C2)c(C)c1-c1ccnc(O[C@@H]2CCN(c3cn[nH]c(=O)c3Cl)C2)c1 (stereo partly drawn) [P-0056, (R)-3-((4-(2-((1-(5-chloro-6-oxo-1,6-dihydropyridazin-4-yl)pyrrolidin-3-yl)oxy)pyridin-4-yl)-3,5-dimethyl-1H-pyrazol-1-yl)methyl)cyclobutane-1-carboxamide]	0.001 to 10	0.001 to 10
Cc1nn(CC2CC(C#N)C2)c(C)c1-c1ccnc(O[C@@H]2CCN(c3cn[nH]c(=O)c3Cl)C2)c1 (stereo partly drawn) [P-0057, (R)-3-((4-(2-((1-(5-chloro-6-oxo-1,6-dihydropyridazin-4-yl)pyrrolidin-3-yl)oxy)pyridin-4-yl)-3,5-dimethyl-1H-pyrazol-1-yl)methyl)cyclobutane-1-carbonitrile]	0.001 to 10	0.001 to 10
O=C(C1CC1)N1CCC(c2ccnc(O[C@@H]3CCN(c4cn[nH]c(=O)c4Cl)C3)c2)CC1 [P-0058, (R)-4-chloro-5-(3-((4-(1-(cyclopropanecarbonyl)piperidin-4-yl)pyridin-2-yl)oxy)pyrrolidin-1-yl)pyridazin-3(2H)-one]	0.001 to 10	0.001 to 10
NC1CCC(c2ccnc(O[C@@H]3CCN(c4cn[nH]c(=O)c4Cl)C3)c2)CC1 (stereo partly drawn) [P-0059, (R)-5-(3-((4-(4-aminocyclohexyl)pyridin-2-yl)oxy)pyrrolidin-1-yl)-4-chloropyridazin-3(2H)-one]	0.001 to 10	0.001 to 10
CC(=O)C1CCC(c2ccnc(O[C@@H]3CCN(c4cn[nH]c(=O)c4Cl)C3)c2)CC1 (stereo partly drawn) [P-0060, (R)-5-(3-((4-(4-acetylcyclohexyl)pyridin-2-yl)oxy)pyrrolidin-1-yl)-4-chloropyridazin-3(2H)-one]	0.001 to 10	0.001 to 10
Cc1nn(CC2COC2)c(C)c1-c1cc(O[C@@H]2CCN(c3cn[nH]c(=O)c3Cl)C2)ncn1 [P-0061, (R)-4-chloro-5-(3-((6-(3,5-dimethyl-1-(oxetan-3-ylmethyl)-1H-pyrazol-4-yl)pyrimidin-4-yl)oxy)pyrrolidin-1-yl)pyridazin-3(2H)-one]	0.001 to 10	0.001 to 10
CCn1nc(C)c(-c2ccnc(O[C@@H]3CCN(c4cnn(CCO)c(=O)c4Cl)C3)c2)c1C [P-0062, (R)-4-chloro-5-(3-((4-(1-ethyl-3,5-dimethyl-1H-pyrazol-4-yl)pyridin-2-yl)oxy)pyrrolidin-1-yl)-2-(2-hydroxyethyl)pyridazin-3(2H)-one]	0.001 to 10	0.001 to 10
Cc1noc(C)c1-c1ccnc(O[C@@H]2CCN(c3cn[nH]c(=O)c3C#N)C2)c1 [P-0063, (R)-5-(3-((4-(3,5-dimethylisoxazol-4-yl)pyridin-2-yl)oxy)pyrrolidin-1-yl)-3-oxo-2,3-dihydropyridazine-4-carbonitrile]	0.001 to 10	0.001 to 10
Cc1nn(CC(O)CCCl)c(C)c1-c1ccnc(O[C@@H]2CCN(c3cnn(CCO)c(=O)c3Cl)C2)c1 (stereo partly drawn) [P-0064, 4-chloro-5-((3R)-3-((4-(1-(4-chloro-2-hydroxybutyl)-3,5-dimethyl-1H-pyrazol-4-yl)pyridin-2-yl)oxy)pyrrolidin-1-yl)-2-(2-hydroxyethyl)pyridazin-3(2H)-one]	0.001 to 10	0.001 to 10
Cc1nn(CC2(O)COC2)c(C)c1-c1ccnc(O[C@@H]2CCN(c3cn[nH]c(=O)c3Cl)C2)c1 [P-0065, (R)-4-chloro-5-(3-((4-(1-((3-hydroxyoxetan-3-yl)methyl)-3,5-dimethyl-1H-pyrazol-4-yl)pyridin-2-yl)oxy)pyrrolidin-1-yl)pyridazin-3(2H)-one]	0.001 to 10	0.001 to 10
Cc1noc(C)c1-c1ccnc(O[C@@H]2CCN(c3cn[nH]c(=O)c3Br)C2)c1 [P-0066, (R)-4-bromo-5-(3-((4-(3,5-dimethylisoxazol-4-yl)pyridin-2-yl)oxy)pyrrolidin-1-yl)pyridazin-3(2H)-one]	0.001 to 10	0.001 to 10
NC1CC=C(c2ccnc(O[C@@H]3CCN(c4cn[nH]c(=O)c4Cl)C3)c2)CC1 (stereo partly drawn) [P-0067, 5-((3R)-3-((4-(4-aminocyclohex-1-en-1-yl)pyridin-2-yl)oxy)pyrrolidin-1-yl)-4-chloropyridazin-3(2H)-one]	0.001 to 10	0.001 to 10
CC(=O)C1CC=C(c2ccnc(O[C@@H]3CCN(c4cn[nH]c(=O)c4Cl)C3)c2)CC1 (stereo partly drawn) [P-0068, 5-((3R)-3-((4-(4-acetylcyclohex-1-en-1-yl)pyridin-2-yl)oxy)pyrrolidin-1-yl)-4-chloropyridazin-3(2H)-one]	0.001 to 10	0.001 to 10
Cc1nn(C(CO)CCl)c(C)c1-c1ccnc(O[C@@H]2CCN(c3cn[nH]c(=O)c3Cl)C2)c1 (stereo partly drawn) [P-0069, 4-chloro-5-((3R)-3-((4-(1-(1-chloro-3-hydroxypropan-2-yl)-3,5-dimethyl-1H-pyrazol-4-yl)pyridin-2-yl)oxy)pyrrolidin-1-yl)pyridazin-3(2H)-one]	0.001 to 10	0.001 to 10
Cc1nn(C2COC2)c(C)c1-c1ccnc(O[C@@H]2CCN(c3cn[nH]c(=O)c3Cl)C2)c1 [P-0070, (R)-4-chloro-5-(3-((4-(3,5-dimethyl-1-(oxetan-3-yl)-1H-pyrazol-4-yl)pyridin-2-yl)oxy)pyrrolidin-1-yl)pyridazin-3(2H)-one]	0.001 to 10	0.001 to 10
O=c1[nH]ncc(N2CC[C@@H](Oc3cc(C4CCNCC4)ccn3)C2)c1Cl [P-0071, (R)-4-chloro-5-(3-((4-(piperidin-4-yl)pyridin-2-yl)oxy)pyrrolidin-1-yl)pyridazin-3(2H)-one]	0.001 to 10	0.001 to 10
O=c1[nH]ncc(N2CC[C@@H](Oc3cc(C4CCOCC4)ccn3)C2)c1Cl [P-0072, (R)-4-chloro-5-(3-((4-(tetrahydro-2H-pyran-4-yl)pyridin-2-yl)oxy)pyrrolidin-1-yl)pyridazin-3(2H)-one]	0.001 to 10	0.001 to 10
O=c1[nH]ncc(N2CC[C@@H](Oc3cc(C4CCCC4)ccn3)C2)c1Cl [P-0073, (R)-4-chloro-5-(3-((4-cyclopentylpyridin-2-yl)oxy)pyrrolidin-1-yl)pyridazin-3(2H)-one]	0.001 to 10	0.001 to 10
N#CC1CCN(c2ccnc(O[C@@H]3CCN(c4cn[nH]c(=O)c4Cl)C3)c2)CC1 [P-0074, (R)-1-(2-((1-(5-chloro-6-oxo-1,6-dihydropyridazin-4-yl)pyrrolidin-3-yl)oxy)pyridin-4-yl)piperidine-4-carbonitrile]	0.001 to 10	0.001 to 10
O=c1[nH]ncc(N2CC[C@@H](Oc3cc(C4=CCNCC4)ccn3)C2)c1Cl [P-0075, (R)-4-chloro-5-(3-((1′,2′,3′,6′-tetrahydro-[4,4′-bipyridin]-2-yl)oxy)pyrrolidin-1-yl)pyridazin-3(2H)-one]	0.001 to 10	0.001 to 10
Cc1nn(CCO)c(C)c1-c1ccnc(O[C@@H]2CCN(c3cn[nH]c(=O)c3Cl)C2)c1 [P-0076, (R)-4-chloro-5-(3-((4-(1-(2-hydroxyethyl)-3,5-dimethyl-1H-pyrazol-4-yl)pyridin-2-yl)oxy)pyrrolidin-1-yl)pyridazin-3(2H)-one]	0.001 to 10	0.001 to 10
CCn1nc(C)c(-c2ccnc(O[C@@H]3CCN(c4cn[nH]c(=O)c4Cl)C3)c2)c1C [P-0077, (R)-4-chloro-5-(3-((4-(1-ethyl-3,5-dimethyl-1H-pyrazol-4-yl)pyridin-2-yl)oxy)pyrrolidin-1-yl)pyridazin-3(2H)-one]	0.001 to 10	0.001 to 10
O=c1[nH]ncc(N2CC[C@@H](Oc3cc(C4=CCOCC4)ccn3)C2)c1Cl [P-0078, (R)-4-chloro-5-(3-((4-(3,6-dihydro-2H-pyran-4-yl)pyridin-2-yl)oxy)pyrrolidin-1-yl)pyridazin-3(2H)-one]	0.001 to 10	0.001 to 10
CC1(C)CCCN1c1ccnc(O[C@@H]2CCN(c3cn[nH]c(=O)c3Cl)C2)c1 [P-0079, (R)-4-chloro-5-(3-((4-(2,2-dimethylpyrrolidin-1-yl)pyridin-2-yl)oxy)pyrrolidin-1-yl)pyridazin-3(2H)-one]	0.001 to 10	0.001 to 10
CC1(C)CNCCN1c1ccnc(O[C@@H]2CCN(c3cn[nH]c(=O)c3Cl)C2)c1 [P-0080, (R)-4-chloro-5-(3-((4-(2,2-dimethylpiperazin-1-yl)pyridin-2-yl)oxy)pyrrolidin-1-yl)pyridazin-3(2H)-one]	10 to 100	0.001 to 10
